One molecule from US9657273B2, “Method for suppressing teratoma formation via selective cell death induction in undifferentiated human-induced pluripotent stem cells” (Industry-University Cooperation Foundation Sogang University, priority 2012, dated 2017) can be followed below.

“Also recorded” adds a separate entry of the source.

One assay has as its system HASMC and iPS-SMC3. As to the kind of experiment: α-SMA expression by immunofluorescence. The class given is cell-based, human. To be noted: 50 μM quercetin, 24 hours. Here is the method:
Human aortic smooth muscle cells (HASMC) and human induced pluripotent stem cells-derived differentiated cells, i.e., human induced pluripotent stem cells-derived smooth muscle cells (iPS-SMC) were cultured in an SMCM medium (ScienCell research laboratories, cat #1101) as described in the reference (Lee et al., 2010). As the first antibody used in IFA was anti-α-smooth muscle actin (α-SMA) (Dako Inc, Carpinteria, Calif.). Images were obtained using Axioscope A1 microscope (Carl Zeiss) and analyzed.

Assay [1] deals with human induced pluripotent stem cells (iPS). As to the kind of experiment: Immunoblotting of apoptosis marker proteins in cell lysate. As to conditions: 50 μM quercetin, 24 hours. Format: cell-based. From the text: The antibodies used in the immunoblotting assay and anti-PARP1 (SC-7150) and anti-β-actin (SC-47778) were purchased from Santa Cruz Biotech Inc. (CA, USA). Additionally, anti-caspase-9 (Cat#9502) and anti-cleaved caspase-3 (Cat#9661) purchased from Cell Signaling Technology (Danvers, Mass., USA). In order to confirm the selective apoptosis of undifferentiated human induced pluripotent stem cells by quercetin, human induced pluripotent stem cells (iPS) derived from human aortic smooth muscle cells (HASMC), HASMC, smooth muscle cell no. 1 differentiated-derived from iPS (iPS-SMC-1), and smooth muscle cell no.
In general terms: A western blot detects proteins with antibodies after separation by electrophoresis.

The next assay relates to iPS-SMC1 and iPS-SMC3. The assay can be described thus: Measurement of intracellular calcium (Fura-2) after ATP or 75 mM K+. As to conditions: 50 μM quercetin, 24 hours, then ATP or 75 mM potassium solution. The class given is cell-based, human. How it is done:
In order to confirm the functions of the differentiated cells which were completely differentiated into smooth muscle cells, an intracellular calcium reaction was used. As described in the reference article (Lee et al., 2006), intracellular or extracellular calcium transients were induced using pharmacological reagents, ATP or 75 mM K^+ solution, and the values were numerized in fluorescence using a calcium indicator Fura-2 (Molecular Probes, Eugene, Oreg.), and imaged.
(In general: A change in cytosolic calcium serves as a functional read-out for many receptors and channels.)

The subject of assay [2] is undifferentiated induced pluripotent stem cells. As to the kind of experiment: Selective cell death of undifferentiated induced pluripotent stem cells (summary statement). The class given is cell-based, human. To be noted: treatment of induced pluripotent stem cells; differentiated cells not affected. The text has this:
The present inventors have made intensive efforts to develop a method for obtaining pure differentiated cells from induced pluripotent stem cells, and in particular, a method for obtaining only the pure differentiated cells by removing the possibility of a tumor formation by the undifferentiated induced pluripotent stem cells causing teratoma formation.

The test system of assay [3] is human induced pluripotent stem cells (iPS). The assay can be described thus: Apoptosis-specific cell phenotype observed under microscope. The class given is cell-based. Here is the method:
Human induced pluripotent stem cells (iPS) derived from human aortic smooth muscle cells (HASMC) was subcultured in an ESC medium (DMEM/F/12 supplemented with a 20% KnockOutTM serum replacement, 0.1% gentamycin, 1% non-essential amino acids, 0.1% β-mercaptoethanol and 4 ng/ml bFGF) containing mouse embryonic fibroblasts (MEF) treated with mitomycin-C as supporting cells Lee, T. H., et al., (2010). Functional recapitulation of smooth muscle cells via induced pluripotent stem cells from human aortic smooth muscle cells. Circ Res 106, 120-128). For the pretreatment of quercetin and YM-155 of the present invention, iPS was cultured in a matrigel-coated 60 mm dish containing […]1 medium (29106, Stem Cell Technology) to induce them into smooth muscle cells (SMC). Human aortic smooth muscle cells (HASMC) and human induced pluripotent stem cells-derived differentiated cells, i.e., human induced pluripotent stem cells-derived smooth muscle cells (iPS-SMC) were cultured in an SMCM medium (ScienCell research laboratories, cat #1101) as described in the reference (Lee et al., 2010). In order to confirm the selective apoptosis of undifferentiated human induced pluripotent stem cells by quercetin, human induced pluripotent stem cells (iPS) derived from human aortic smooth muscle cells (HASMC), HASMC, smooth muscle cell no. 1 differentiated-derived from iPS (iPS-SMC-1), and smooth muscle cell no. […]

The test system of assay [4] is mixed cell population of human induced pluripotent stem cells-smooth muscle cells. As to the kind of experiment: Cleaved caspase-3 immunostaining in 1:1 mixed iPS / iPS-derived smooth muscle cell culture. Format: cell-based. To be noted: 50 μM quercetin, 24 hours; 1:1 mixture of iPS and iPS-derived SMC. How it is done:
The scale bar denotes 100 μm. […] In order to confirm the functions of smooth muscle cells differentiated-derived from human induced pluripotent stem cells, the population, which was cultured by mixing human induced pluripotent stem cells and the smooth muscle cells differentiated-derived from the human induced pluripotent stem cells in a 1:1 ratio, was treated with 50 μM quercetin for 24 hours, and examined the cleavage type caspase-3 positive population in the population of SMA-positive population or SSEA-4-positive population.

Regarding `O=c1c(O)c(-c2ccc(O)c(O)c2)oc2cc(O)cc(O)c12` [quercetin, 2-(3,4-dihydroxyphenyl)-3,5,7-trihydroxy-4H-chromen-4-one], in the assay with HASMC and iPS-SMC3, the “expression of α-SMA (immunofluorescence)” value was “the expression of α-SMA was confirmed”. Besides, the “apoptosis marker proteins: cleavage of Parp-1, cleaved caspase-3 and caspase-9” value in assay [1] is “exhibited the expression of Parp-1 cleavage (T type), cleavage types of caspase-3 and caspase-9”. Further, the “intracellular calcium response (function as smooth muscle cells)” value with iPS-SMC1 and iPS-SMC3 is listed as “confirmed the functions as smooth muscle cells”. In addition, the “selective killing of undifferentiated induced pluripotent stem cells” value in assay [2] was “only the undifferentiated induced pluripotent stem cells were effectively and selectively killed”. For the same molecule, the “apoptosis-specific phenotypic cell type” value in assay [3] (50 μM quercetin, 24 hours, iPS vs HASMC, iPS-SMC-1, iPS-SMC-3) is “exhibited a distinct apoptosis-specific cell phenotype; also recorded: distinctive apoptosis-specific phenotypic cell type was discovered”. In addition, in assay [3] (various concentrations of quercetin (QC), iPS), the “degree of apoptosis (apoptosis-specific phenotypic cell type) at various concentrations” value was “concentration-dependent”. In addition, the “cleavage type caspase-3 positive population in SSEA-4-positive vs SMA-positive population” value in assay [4] is reported as “excellent cleavage type caspase-3 positive population within the SSEA-4 positive population”.
